Molecules are shown by their SMILES. pIC50: −log10 of the molar value. Counter-ions that a name gives are not always drawn. Where only a bound is given, the exact number is not on record here.

One test relates to Pfeiffer cells, lymphoma cells having EZH2 mutation (A677G). In words: Proliferation inhibition of cells of hematologic malignancies (CCK-8, 11 days). Particulars: 11 days culture, read-out: Cell proliferation inhibitory effect (IC50). Type of test: cell-based. The gist of the method:
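Pfeiffer lymphoma cells (EZH2 A677G) in RPMI1640 with 10% FBS were seeded at 10,000 cells/well and exposed to test material for 11 days, with compound replaced every 3–4 days. Viability was read by CCK-8 absorbance at 450 nm, and IC50 was derived by non-linear regression curve fitting.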
For the molecule `CCN(C)c1ccc(-c2cc(C(=O)NCc3c(SC)cc(C)[nH]c3=O)c(C)c3c2OC(C)(C2CCN(CC(F)(F)F)CC2)O3)cn1` (stereo not shown) [Compound 87, 7-(6-(ethyl(methyl)amino)pyridin-3-yl)-2,4-dimethyl-N-((6-methyl-4-(methylthio)-2-oxo-1,2-dihydropyridin-3-yl)methyl)-2-(1-(2,2,2-trifluoroethyl)piperidin-4-vi)benzo[d][1,3]dioxole-5-carboxamide], the pIC50 is 7.00 to 8.00.
Turning to `CSc1cc(C)[nH]c(=O)c1CNC(=O)c1cc(-c2ccc(N3C[C@@H](C)O[C@@H](C)C3)nc2)c2c(c1C)OC(C)([C@H]1CC[C@H](N(C)CC(F)(F)F)CC1)O2` (single isomer, unassigned) [Compound 107], the pIC50 is at least 8.00.
Take `CSc1cc(C)[nH]c(=O)c1CNC(=O)c1cc(-c2ccc(N3C[C@@H](C)O[C@@H](C)C3)nc2)c2c(c1C)OC(C)(C1CCN(CCCC(F)(F)F)CC1)O2` (single isomer, unassigned) [Compound 58]: the pIC50 is at most 7.00.
For the molecule `CCN1CCC(C2(C)Oc3c(-c4cnc(N5CCOCC5)nc4)cc(C(=O)NCc4c(SC)cc(C)[nH]c4=O)c(C)c3O2)CC1` (stereo not shown) [Compound 74, 2-(1-ethylpiperidin-4-yl)-2,4-dimethyl-N-((6-methyl-4-(methylthio)-2-oxo-1,2-dihydropyridin-3-yl)methyl)-7-(2-morpholinopyrimidin-5-yl)benzo[d][1,3]dioxole-5-carboxamide], the pIC50 was at most 7.00.
Same read-out and setting: then `CSc1cc(C)[nH]c(=O)c1CNC(=O)c1cc(-c2ccc(N3C[C@@H](C)O[C@@H](C)C3)nc2)c2c(c1C)OC(C)(C1CCN(C(C)C)CC1)O2` (single isomer, unassigned) [Compound 51], with at least 8.00; and `CSc1cc(C)[nH]c(=O)c1CNC(=O)c1cc(-c2ccc(N3CCOCC3)nc2)c2c(c1C)OC(C)(C1CCN(CC(F)F)CC1)O2` (single isomer, unassigned) [Compound 64, 2-(1-(2,2-difluoroethyl)piperidin-4-yl)-2,4-dimethyl-N-((6-methyl-4-(methylthio)-2-oxo-1,2-dihydropyridin-3-yl)methyl)-7-(6-morpholinopyridin-3-yl)benzo[d][1,3]dioxole-5-carboxamide], with at least 8.00.

Staying with this test, now noted: Homo sapiens, Pfeiffer, 264 h, 11 days culture, read-out: Cell proliferation inhibitory effect (IC50).
`CSc1cc(C)[nH]c(=O)c1CNC(=O)c1cc(-c2ccc(N3CCSCC3)nc2)c2c(c1C)OC(C)([C@H]1CC[C@H](N(C)C)CC1)O2` (stereo partly drawn) [Compound 17, 2-(trans-4-(dimethylamino)cyclohexyl)-2,4-dimethyl-N-((6-methyl-4-(methylthio)-2-oxo-1,2-dihydropyridin-3-yl)methyl)-7-(6-thiomorpholinopyridin-3-yl)benzo[d][1,3]dioxole-5-carboxamide]: the pIC50 was at least 8.00.
Still for that read-out and setting: then `CSc1cc(C)[nH]c(=O)c1CNC(=O)c1cc(-c2ccc3c(ccn3C)c2)c2c(c1C)OC(C)([C@H]1CC[C@H](N(C)C)CC1)O2` (stereo partly drawn) [Compound 7, 2-(trans-4-(dimethylamino)cyclohexyl)-2,4-dimethyl-7-(1-methyl-1H-indol-5-yl)-N-((6-methyl-4-(methylthio)-2-oxo-1,2-dihydropyridin-3-yl)methyl)benzo[d][1,3]dioxole-5-carboxamide], with at least 8.00; and `COC1CN([C@H]2CC[C@H](C3(C)Oc4c(-c5ccc(N6C[C@@H](C)O[C@@H](C)C6)nc5)cc(C(=O)NCc5c(SC)cc(C)[nH]c5=O)c(C)c4O3)CC2)C1` (stereo partly drawn) [Compound 106, 7-(6-((2S,6R)-2,6-dimethylmorpholino)pyridin-3-yl)-2-(trans-4-(3-methoxyazetidin-1-yl)cyclohexyl)-2,4-dimethyl-N-((6-methyl-4-(methylthio)-2-oxo-1,2-dihydropyridin-3-yl)methyl)benzo[d][1,3]dioxole-5-carboxamide], with at least 8.00.
`CSc1cc(C)[nH]c(=O)c1CNC(=O)c1cc(-c2ccoc2)c2c(c1C)OC(C)([C@H]1CC[C@H](N(C)C)CC1)O2` (stereo partly drawn) [Compound 18, 2-(trans-4-(dimethylamino)cyclohexyl)-7-(furan-3-yl)-2,4-dimethyl-N-((6-methyl-4-(methylthio)-2-oxo-1,2-dihydropyridin-3-yl)methyl)benzo[d][1,3]dioxole-5-carboxamide]: the pIC50 is at least 8.00.
For the molecule `CSc1cc(C)[nH]c(=O)c1CNC(=O)c1cc(-c2ccc3occc3c2)c2c(c1C)OC(C)(C1CCN(CC(F)F)CC1)O2` (stereo not shown) [Compound 97, 7-(benzofuran-5-yl)-2-(1-(2,2-difluoroethyl)piperidin-4-yl)-2,4-dimethyl-N-((6-methyl-4-(methylthio)-2-oxo-1,2-dihydropyridin-3-yl)methyl)benzo[d][1,3]dioxole-5-carboxamide], the pIC50 was at most 7.00.
Take `CCN(C)c1ccc(-c2cc(C(=O)NCc3c(SC)cc(C)[nH]c3=O)c(C)c3c2OC(C)(C2CCN(CC(F)(F)F)CC2)O3)cn1` (single isomer, unassigned) [Compound 86, 7-(6-(ethyl(methyl)amino)pyridin-3-yl)-2,4-dimethyl-N-((6-methyl-4-(methylthio)-2-oxo-1,2-dihydropyridin-3-yl)methyl)-2-(1-(2,2,2-trifluoroethyl)piperidin-4-yl)benzo[d][1,3]dioxole-5-carboxamide]: the pIC50 is at least 8.00.
Take `CSc1cc(C)[nH]c(=O)c1CNC(=O)c1cc(-c2ccc(N3C[C@@H](C)O[C@@H](C)C3)nc2)c2c(c1C)OC(C)(C1CCN(CC(F)(F)F)CC1)O2` (stereo partly drawn) [Compound 33, 7-(6-((2S,6R)-2,6-dimethylmorpholino)pyridin-3-yl)-2,4-dimethyl-N-((6-methyl-4-(methylthio)-2-oxo-1,2-dihydropyridin-3-yl)methyl)-2-(1-(2,2,2-trifluoroethyl)piperidin-4-yl)benzo[d][1,3]dioxole-5-carboxamide]: the pIC50 was at least 8.00.
As to `CCN1CCN(c2ncc(-c3cc(C(=O)NCc4c(SC)cc(C)[nH]c4=O)c(C)c4c3OC(C)(C3CCN(CC(F)(F)F)CC3)O4)cn2)CC1` (stereo not shown) [Compound 75, 7-(2-(4-ethylpiperazin-1-yl)pyrimidin-5-yl)-2,4-dimethyl-N-((6-methyl-4-(methylthio)-2-oxo-1,2-dihydropyridin-3-yl)methyl)-2-(1-(2,2,2-trifluoroethyl)piperidin-4-yl)benzo[d][1,3]dioxole-5-carboxamide], the pIC50 is at least 8.00.
On the same count and under the same terms, then `CSc1cc(C)[nH]c(=O)c1CNC(=O)c1cc(-c2ccc(N3C[C@@H](C)O[C@@H](C)C3)nc2)c2c(c1C)OC(C)([C@H]1CC[C@H](N)CC1)O2` (stereo partly drawn) [Compound 100, 2-(trans-4-aminocyclohexyl)-7-(6-((2S,6R)-2,6-dimethylmorpholino)pyridin-3-yl)-2,4-dimethyl-N-((6-methyl-4-(methylthio)-2-oxo-1,2-dihydropyridin-3-yl)methyl)benzo[d][1,3]dioxole-5-carboxamide hydrochloride salt], with at least 8.00; and `CSc1cc(C)[nH]c(=O)c1CNC(=O)c1cc(-c2ccc(F)nc2F)c2c(c1C)OC(C)([C@H]1CC[C@H](N(C)C)CC1)O2` (stereo partly drawn) [Compound 14, 7-(2,6-difluoropyridin-3-yl)-2-(trans-4-(dimethylamino)cyclohexyl)-2,4-dimethyl-N-((6-methyl-4-(methylthio)-2-oxo-1,2-dihydropyridin-3-yl)methyl)benzo[d][1,3]dioxole-5-carboxamide], with at least 8.00.

For the origin of these results see US20250059180A1 (DONG WHA PHARM. CO., LTD., priority 2022, published 2025).
